Molecules are shown by their SMILES. Entries after “also recorded” stand apart in the source; their conditions may differ.

The record followed here is patent US20110319484A1, “NEUROPROTECTIVE COMPOUNDS” (Parque Tecnologico de Ciencias de la Salud, priority 2009, published 2011).

Data set [1] can be described thus: Crossing of the blood-brain barrier by PAMPA in vitro assay. It counts as in vitro ADME, pig. The conditions noted are these: acid forms, 100 μM, pH 7.4, 18 h. The protocol: To that end, the PAMPA (Parallel Artificial Membrane Permeation Assay) assay was used, which uses a sandwich system contemplating the crossing of compounds by means of passive diffusion, preventing active transport.
A mixture of commercial lipids derived from pig brain with a phospholipid composition very similar to that which forms the human BBB, called PBL (Porcine Polar Brain Lipid), was used to mimic the BBB, and it was stored at −20° C. dissolved in dodecane at 100 μg/ml in glass vials. The verapamil and theophylline were prepared at 10 mM in DMSO, whereas the acid forms of NST0003, NST0004 and NST0005 were prepared in water and were activated with 0.1 N NaOH at 4° C. for 12 h.
At the time of the assay, 1.5 ml of the compounds to be evaluated at 100 μM were prepared in a phosphate buffer at pH 7.4, maintaining a constant concentration of DMSO of 1%. 5 μl of PBL at 20 μg/ml were added in a 96-well filter plate, with a polyvinylidene fluoride (PVDF) membrane, with a pore size of […] (MAIPN4550, Millipore). After 2 minutes, 300 μl of the phosphate buffer used to dilute the compounds were added. This plate was considered the “acceptor” plate and was placed in the top part of the sandwich. 300 μl of the compounds were added at 100 μM on another 96-well plate which is assembled with the previous one (MATRNP550 of Millipore) (called “donor”) and in triplicate. […] After that time, 100 μl of the wells of the donor plates and of the acceptor plates were transferred to a special 96-well plate for ultraviolet (UV) reading. […] The plate was introduced in a spectrophotometer in which a scan was carried out in UV from 230 to 498 nm, with readings every 4 nm. From the data provided by the spectrophotometer the percentage of barrier crossing as well as the effective permeability (Pe) were calculated by applying the following formula:
[formula] […] [formula] • [Drug]acceptor=Absorbance of the acceptor well • [Drug]equilibrium=Absorbance of the mean of the basal wells/2 • VA=Volume of the acceptor well=0.3 cm^3 • VD=Volume of the donor well=0.3 cm^3 • Area=0.24 cm^2 • Time=64,000 s
Background: The PAMPA barrier holds no transporters, so it reflects passive diffusion.

The test system of data set [2] is hippocampus of mice. Kind of data set: Neuroprotection in the hippocampus of mice after kainate (histopathology). It is filed as in vivo, mice (FVB/NHan). The conditions noted are these: KA 25 mg/kg i.p., NST0005 50 mg/kg i.p. daily, 2 days before and 7 days after KA. The protocol:
All the animals included during the experimental process were 12-week old males of the FVB/NHan strain. The experiments were carried out strictly following the Guidance on the Operation of Animals (Scientific Procedures, Act. 1986). The animals had their respective quarantine period and were treated with maximum precaution to minimize possible contaminations for inoculations and handling.
Sixteen animals were used in this assay and the treatments were all carried out by intraperitoneal (i.p.) route with a volume of 100 μl, according to the following regimens: • i) PBS+PBS+PBS regimen: 4 animals were initially treated with PBS with a daily dose for 2 days, on the second day the animals were inoculated with a new dose of PBS and for the next 7 days with a daily dose of PBS. • ii) PBS+KA+PBS regimen: 6 animals were initially treated with PBS with a daily dose for 2 days, on the second day the animals were inoculated with a dose of kainate at 25 mg/kg and for the next 7 days with a daily dose of PBS. • iii) NST0005+KA+NST0005 regimen: 6 animals were initially treated with NST0005 with a daily dose of 50 mg/kg for 2 days, on the second day the animals were inoculated with a dose of kainate at 25 mg/kg and for the next 7 days with a daily dose of NST0005 at 50 mg/kg.
Once the treatment time of 7 days ended, the animals were sacrificed and the brains were dissected. The brain samples were processed and included in paraffin. Fluoro-Jade B® (FJB) fluorescent stain was used in 5 μm thick sections to analyze the neurodegeneration of the hippocampus.
Based on the neuroprotection results shown in the previous section, the inventors decided to investigate if the neuroprotective effect of NST0005 in the hippocampus of mice against the administration of kainate (KA) was accompanied by the protection of another sign of neuronal damage such as neuritic dystrophy. To that end, the same experimental scheme was used as in section 6.1. Once the treatment period of 7 days ended, the animals were sacrificed and the brains were dissected. The brain samples were processed and included in paraffin. Bright field immunohistochemistry of the microtubule-associated protein 2 (MAP2) was used in 5 μm thick sections to analyze the neuritic dystrophy of the hippocampus.
Based on the neuroprotection results shown in the previous sections, the inventors decided to investigate if the neuroprotective effect of NST0005 in the hippocampus of mice against the administration of kainate (KA) was accompanied by the inhibition of neuronal death by apoptosis. To that end, the same experimental scheme was used as in section 6.1. Once the treatment period of 7 days ended, the animals were sacrificed and the brains were dissected. The brain samples were processed and included in paraffin. […]

On to `CCC(=O)O[C@H]1C[C@@H](C)C=C2C=C[C@H](C)[C@H](CC[C@@H]3C[C@@H](O)CC(=O)O3)[C@H]21` [NST0003, (1S,3R,7S,8S,8aR)-1,2,3,7,8,8a-hexahydro-3,7-dimethyl-8-[2-[(2R,4R)-tetrahydro-4-hydroxy-6-oxo-2H-pyran-2-yl]ethyl-1-naphthalenyl propanoate], for which the “crossing of the blood-brain barrier” value in data set [1] is listed as “capable of crossing the blood-brain barrier”.

As for `CC(C)C(=O)O[C@H]1C[C@@H](C)C=C2C=C[C@H](C)[C@H](CC[C@@H]3C[C@@H](O)CC(=O)O3)[C@H]21` [NST0004], in data set [1], the “crossing of the blood-brain barrier” value is recorded as “capable of crossing the blood-brain barrier”.

As to `C[C@H]1C=C2C=C[C@H](C)[C@H](CC[C@@H]3C[C@@H](O)CC(=O)O3)[C@H]2[C@@H](OC(=O)C(C)(C)C)C1` [NST0005], in data set [2], the “neuritic dystrophy in the hippocampus (MAP2)” value was “significantly prevents the neuritic dystrophy”; the “neurodegeneration in the hippocampus (Fluoro-Jade B)” value was “completely protected against the neurodegeneration”; the “neuronal death by apoptosis in the hippocampus (Acridine Orange)” value was “prevents neuronal damage, neurodegeneration and also neuronal death by apoptosis”; the “neuronal death by necrosis in the hippocampus (hematoxylin and eosin)” value is given as “substantially prevents neuronal death by necrosis”. In data set [1], the “crossing of the blood-brain barrier” value is listed as “highest capacity to cross the BBB; also recorded: capable of crossing the blood-brain barrier”.
